Patent US20240148821A1, “PHARMACEUTICAL USE OF CYCLIC PEPTIDE COMPOUND” (CHUGAI SEIYAKU KABUSHIKI KAISHA, priority 2021, published 2024)
Numbered stars: 1 amine (or outer) side, 2 acyl side, 3 side chain; on linkers, the order of the positions; unused ones are H or OH. Bridge positions count the residues as written; N and C are the ends. Square brackets hold non-standard residues; d marks the D form. Peptide text beside a SMILES is read from it. * marks the point of attachment. hPhe(3-Cl-4-CF3) = N[C@@H](CCc1ccc(C(F)(F)F)c(Cl)c1)C(=O)O; hPhe(3-F,4-CF3) = N[C@@H](CCc1ccc(C(F)(F)F)c(F)c1)C(=O)O; NMePhe(4-CF3) = CN[C@@H](Cc1ccc(C(F)(F)F)cc1)C(=O)O; hPhe(4-CF3) = N[C@@H](CCc1ccc(C(F)(F)F)cc1)C(=O)O; Pro(cis-4-Ph) = O=C(O)[C@@H]1C[C@H](c2ccccc2)CN1; NMePhe(4-Cl) = CN[C@@H](Cc1ccc(Cl)cc1)C(=O)O; NEtPhe(2-Cl) = CCN[C@@H](Cc1ccccc1Cl)C(=O)O; NMePhe(4-Me) = CN[C@@H](Cc1ccc(C)cc1)C(=O)O; X5 = CCN([C@@H](CC1CCCCC1)C(=O)[*:2])[*:1]; NMedβ3hAla = C[C@H](CC(=O)[*:2])N(C)[*:1]; NMeNva(5,5-F2) = CN[C@@H](CCC(F)F)C(=O)O; NMeGly(cPent) = CN[C@H](C(=O)O)C1CCCC1; Phe(3-I) = N[C@@H](Cc1cccc(I)c1)C(=O)O; Pro(4,4-F2) = O=C(O)[C@@H]1CC(F)(F)CN1; X136 = O=C(CN(CCN1CCNCC1)[*:1])[*:2]; NMeCha = CN[C@@H](CC1CCCCC1)C(=O)O; Hyp = O=C(O)[C@@H]1C[C@@H](O)CN1; NEtLeu = CCN[C@@H](CC(C)C)C(=O)O; NMeChg = CN[C@H](C(=O)O)C1CCCCC1; NMeF = CN[C@@H](Cc1ccccc1)C(=O)O; NMeD = CN[C@@H](CC(=O)O)C(=O)O; NMeL = CN[C@@H](CC(C)C)C(=O)O; NMehSer = CN[C@@H](CCO)C(=O)O; NEtAla = CCN[C@@H](C)C(=O)O; NMeNva = CCC[C@H](NC)C(=O)O; NMeV = CN[C@H](C(=O)O)C(C)C; d(β3hA) = C[C@@H](N)CC(=O)O; Azetidin(1-yl) = C1CN(*)C1; NMeA = CN[C@@H](C)C(=O)O; NMeAib = CNC(C)(C)C(=O)O; Piperidide = C1CCN(*)CC1; Ac5c = NC1(C(=O)O)CCCC1; Aze = O=C(O)[C@@H]1CCN1; Ac4c = NC1(C(=O)O)CCC1; X80 = FC1(F)CCCN(*)C1; Sar = CNCC(=O)O

biological target: protein-protein interaction between Kras and SOS1 (biotin-tagged human Kras loaded with GDP, His-tagged human SOS1) (Homo sapiens (Human), UniProt P01116, G12D); assay: Protein-protein interaction inhibition between Kras and SOS1 (KrasG12D-SOS PPI) using AlphaScreen; format: biochemical; conditions: not given;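 also: kras produced in E. coli, Ni-coupled donor beads and streptavidin acceptor beads, excitation 680 nm with emission detected at 520–620 nm via singlet oxygen transfer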

SMILES	IC50
CC[C@H](C)[C@@H]1NC(=O)[C@H](CC(C)C)N(C)C(=O)C[C@@H](C(=O)N2CCCC(F)(F)C2)N(C)C(=O)[C@H](CC(C)C)NC(=O)C(C)(C)N(C)C(=O)[C@H](Cc2ccc(OC)cc2)NC(=O)[C@H](Cc2cccc(I)c2)NC(=O)CN(C)C(=O)[C@H](Cc2ccc(C)cc2)N(C)C(=O)CN(C)C(=O)CN(C)C1=O [Compound 2099, (3S,9S,12S,18S,27S,30S,34S)-34-(3,3-difluoropiperidine-1-carbonyl)-12-[(3-iodophenyl)methyl]-3,30-diisobutyl-9-[(4-methoxyphenyl)methyl]-1,6,6,7,16,19,22,25,31-nonamethyl-27-[(1S)-1-methylpropyl]-18-(p-tolylmethyl) 1,4,7,10,13,16,19,22,25,28,31-undecazacyclotetratriacontane-2,5,8,11,14,17,20,23,26,29,32-undecone] ([NMeL]I[Sar][Sar][NMePhe(4-Me)][Sar][Phe(3-I)]Y(Me)[NMeAib]L[NMeD]-X80; lactam N-11)	25 nM

same assay, conditions: AlphaScreen; biotin-tagged human Kras loaded with GDP, His-tagged human SOS1; read-out: KRAS G12D-SOS PPI IC50

SMILES	IC50
CC[C@H](C)[C@@H]1NC(=O)[C@H](CC(C)C)N(C)C(=O)C[C@@H](C(=O)N2CCCCC2)N(C)C(=O)[C@H](C(C)C)N(C)C(=O)C2(CCCC2)NC(=O)[C@@H]2CCCN2C(=O)[C@H](CCc2ccc(C(F)(F)F)c(Cl)c2)NC(=O)CN(C)C(=O)[C@H](CC2CCCCC2)N(C)C(=O)[C@@H]2CCN2C(=O)[C@H](C(C)C)N(C)C1=O [Compound 1592] ([NMeL]I[NMeV][Aze][NMeCha][Sar][hPhe(3-Cl-4-CF3)]P[Ac5c][NMeV][NMeD]-Piperidide; lactam N-11)	210 nM
CC[C@H](C)[C@@H]1NC(=O)[C@H](CC(C)C)N(C)C(=O)C[C@@H](C(=O)N2CCCCC2)N(C)C(=O)[C@H](C2CCCCC2)N(C)C(=O)C2(CCCC2)NC(=O)CN(CCN2CCNCC2)C(=O)[C@H](CCc2ccc(C(F)(F)F)c(Cl)c2)NC(=O)CN(C)C(=O)[C@H](CC2CCCCC2)N(C)C(=O)CN(C)C(=O)CN(C)C1=O [Compound 2184, (11S,17S,26S,29S,33S,36S)-11-[2-[3-chloro-4-(trifluoromethyl)phenyl]ethyl]-36-cyclohexyl-17-(cyclohexylmethyl)-29-isobutyl-15,18,21,24,30,34,37-heptamethyl-26-[(1S)-1-methylpropyl]-9-(2-piperazin-1-ylethyl)-33-(piperidine-1-carbonyl)-6,9,12,15,18,21,24,27,30,34,37-undecazaspiro[4.33]octatriacontane-7.10,13,16,19,22,25,28,31,35,38-undecone] ([NMeL]I[Sar][Sar][NMeCha][Sar][hPhe(3-Cl-4-CF3)][X136][Ac5c][NMeChg][NMeD]-Piperidide; lactam N-11)	7.9 nM
CC[C@H](C)[C@@H]1NC(=O)[C@H](C)N(C)C(=O)C[C@@H](C(=O)N2CCCCC2)N(C)C(=O)[C@H](C(C)C)N(C)C(=O)C2(CCCC2)NC(=O)[C@H](Cc2ccccc2Cl)N(CC)C(=O)[C@H](CCc2ccc(C(F)(F)F)c(Cl)c2)NC(=O)CN(C)C(=O)[C@H](CC2CCCCC2)N(C)C(=O)CN(C)C(=O)CN(C)C1=O [Compound 2161, (8S,11S,17S,26S,29S,33S,36S)-8-[(2-chlorophenyl)methyl]-11-[2-[3-chloro-4-(trifluoromethyl)phenyl]ethyl]-17-(cyclohexylmethyl)-9-ethyl-36-isopropyl-15,18,21,24,29,30,34,37-octamethyl-26-[(1S)-1-methylpropyl]-33-(piperidine-1-carbonyl)-6,9,12,15,18,21,24,27,30,34,37-undecazaspiro[4.33]octatriacontane-7,10,13,16,19,22,25,28,31,35,38-undecone] ([NMeA]I[Sar][Sar][NMeCha][Sar][hPhe(3-Cl-4-CF3)][NEtPhe(2-Cl)][Ac5c][NMeV][NMeD]-Piperidide; lactam N-11)	480 nM
CC[C@H](C)[C@@H]1NC(=O)[C@H](CC(C)C)N(C)C(=O)C[C@@H](C(=O)N2CCCCC2)N(C)C(=O)[C@H](C2CCCCC2)N(C)C(=O)C2(CCCC2)NC(=O)[C@H](CCOC)N(C)C(=O)[C@H](CCc2ccc(C(F)(F)F)c(Cl)c2)NC(=O)CN(C)C(=O)[C@H](CC2CCCCC2)N(C)C(=O)CN(C)C(=O)CN(C)C1=O [Compound 2168] ([NMeL]I[Sar][Sar][NMeCha][Sar][hPhe(3-Cl-4-CF3)][NMehSer](Me)[Ac5c][NMeChg][NMeD]-Piperidide; lactam N-11)	1.3 nM
CC[C@H](C)[C@@H]1NC(=O)[C@H](CC(C)C)N(C)C(=O)C[C@@H](C(=O)N2CCCCC2)N(C)C(=O)[C@H](C(C)C)N(C)C(=O)C2(CCCC2)NC(=O)[C@@H]2CCCN2C(=O)[C@H](CCc2ccc(C(F)(F)F)c(Cl)c2)NC(=O)CN(C)C(=O)[C@H](CC2CCCCC2)N(CC)C(=O)[C@@H]2CCN2C(=O)[C@H](C)N(C)C1=O [Compound 23] ([NMeL]I[NMeA][Aze][X5][Sar][hPhe(3-Cl-4-CF3)]P[Ac5c][NMeV][NMeD]-Piperidide; lactam N-11)	2.7 nM
CCC[C@H]1C(=O)NC2(CCCC2)C(=O)N(C)[C@@H](C2CCCCC2)C(=O)N(C)[C@H](C(=O)N2CCCCC2)CC(=O)N(C)[C@@H](CC(C)C)C(=O)N[C@@H]([C@@H](C)CC)C(=O)N(C)CC(=O)N(C)CC(=O)N(C)[C@@H](CC2CCCCC2)C(=O)N(C)CC(=O)N[C@@H](CCc2ccc(C(F)(F)F)c(Cl)c2)C(=O)N1C [Compound 1005] ([NMeL]I[Sar][Sar][NMeCha][Sar][hPhe(3-Cl-4-CF3)][NMeNva][Ac5c][NMeChg][NMeD]-Piperidide; lactam N-11)	3.5 nM
CC[C@H](C)[C@@H]1NC(=O)[C@H](CC(C)C)N(C)C(=O)C[C@@H](C)N(C)C(=O)[C@H](C2CCCCC2)N(C)C(=O)C2(CCC2)NC(=O)[C@@H]2CC(F)(F)CN2C(=O)[C@H](CCc2ccc(C(F)(F)F)c(Cl)c2)NC(=O)CN(C)C(=O)[C@H](Cc2ccc(C(F)(F)F)cc2)N(C)C(=O)[C@@H]2CCN2C(=O)[C@H](C)N(C)C1=O [Compound 505] (cyclo([Ac4c][NMeChg][NMedβ3hAla][NMeL]I[NMeA][Aze][NMePhe(4-CF3)][Sar][hPhe(3-Cl-4-CF3)][Pro(4,4-F2)]))	86 nM
CC[C@H](C)[C@@H]1NC(=O)[C@H](CC(C)C)N(C)C(=O)C[C@@H](C(=O)N2CCCCC2)N(C)C(=O)[C@H](C2CCCCC2)N(C)C(=O)C2(CCCC2)NC(=O)[C@H](CCC(F)F)N(C)C(=O)[C@H](CCc2ccc(C(F)(F)F)c(Cl)c2)NC(=O)CN(C)C(=O)[C@H](CC2CCCCC2)N(C)C(=O)CN(C)C(=O)CN(C)C1=O [Compound 523] ([NMeL]I[Sar][Sar][NMeCha][Sar][hPhe(3-Cl-4-CF3)][NMeNva(5,5-F2)][Ac5c][NMeChg][NMeD]-Piperidide; lactam N-11)	5.8 nM
CC[C@H](C)[C@@H]1NC(=O)[C@H](CC(C)C)N(C)C(=O)C[C@@H](C(=O)N2CCCCC2)N(C)C(=O)[C@H](C2CCCC2)N(C)C(=O)C2(CCCC2)NC(=O)[C@@H]2CCCN2C(=O)[C@H](CCc2ccc(C(F)(F)F)c(F)c2)NC(=O)CN(C)C(=O)[C@H](Cc2ccc(C)cc2)N(C)C(=O)[C@@H]2CCN2C(=O)[C@H](C)N(C)C1=O [Compound 1008] ([NMeL]I[NMeA][Aze][NMePhe(4-Me)][Sar][hPhe(3-F,4-CF3)]P[Ac5c][NMeGly(cPent)][NMeD]-Piperidide; lactam N-11)	0.76 nM
CC[C@H](C)[C@@H]1NC(=O)[C@H](CC(C)C)N(C)C(=O)C[C@@H](C(=O)N2CCCCC2)N(C)C(=O)[C@H](C2CCCCC2)N(C)C(=O)C2(CCCC2)NC(=O)[C@@H]2C[C@H](c3ccccc3)CN2C(=O)[C@H](CCc2ccc(C(F)(F)F)c(Cl)c2)NC(=O)CN(C)C(=O)[C@H](CC2CCCCC2)N(C)C(=O)CN(C)C(=O)CN(C)C1=O [Compound 428] ([NMeL]I[Sar][Sar][NMeCha][Sar][hPhe(3-Cl-4-CF3)][Pro(cis-4-Ph)][Ac5c][NMeChg][NMeD]-Piperidide; lactam N-11)	9.1 nM
CC[C@H](C)[C@@H]1NC(=O)[C@H](CC(C)C)N(C)C(=O)C[C@@H](C)NC(=O)[C@H](C2CCCC2)N(C)C(=O)C2(CCCC2)NC(=O)[C@@H]2CCCN2C(=O)[C@H](CCc2ccc(C(F)(F)F)c(Cl)c2)NC(=O)CN(C)C(=O)[C@H](Cc2ccc(C)cc2)N(C)C(=O)[C@@H]2CCN2C(=O)[C@H](C)N(CC)C1=O [Compound 1023] (cyclo([Ac5c][NMeGly(cPent)][d(β3hA)][NMeL]I[NEtAla][Aze][NMePhe(4-Me)][Sar][hPhe(3-Cl-4-CF3)]P))	20 nM
CC[C@H](C)[C@@H]1NC(=O)[C@H](CC(C)C)N(CC)C(=O)C[C@@H](C(=O)N2CCC2)N(C)C(=O)[C@H](C2CCCC2)N(C)C(=O)C2(CCCC2)NC(=O)[C@@H]2CCCN2C(=O)[C@H](CCc2ccc(C(F)(F)F)c(Cl)c2)NC(=O)CN(C)C(=O)[C@H](CC2CCCCC2)N(C)C(=O)[C@@H]2CCN2C(=O)[C@H](C)N(C)C1=O [Compound 1198] ([NEtLeu]I[NMeA][Aze][NMeCha][Sar][hPhe(3-Cl-4-CF3)]P[Ac5c][NMeGly(cPent)][NMeD]-{Azetidin(1-yl)}; lactam N-11)	1.2 nM
CC[C@H](C)[C@@H]1NC(=O)[C@H](C)N(C)C(=O)C[C@@H](C)NC(=O)[C@H](C2CCCC2)N(C)C(=O)C2(CCCC2)NC(=O)[C@@H]2CCCN2C(=O)[C@H](CCc2ccc(C(F)(F)F)c(Cl)c2)NC(=O)CN(C)C(=O)[C@H](Cc2ccc(C)cc2)N(C)C(=O)CN(C)C(=O)CN(C)C1=O [Compound 1485] (cyclo([Ac5c][NMeGly(cPent)][d(β3hA)][NMeA]I[Sar][Sar][NMePhe(4-Me)][Sar][hPhe(3-Cl-4-CF3)]P))	0.84 nM
CCO[C@@H]1C[C@H]2C(=O)N(C)[C@@H](Cc3ccccc3)C(=O)N(C)[C@@H](CC(C)C)C(=O)N[C@H](C)CC(=O)N(C)[C@@H](C)C(=O)N[C@@H]([C@@H](C)CC)C(=O)N(C)CC(=O)N(C)CC(=O)N(C)[C@@H](Cc3ccc(Cl)cc3)C(=O)N(C)CC(=O)N[C@@H](CCc3ccc(C(F)(F)F)cc3)C(=O)N2C1 [Compound 322] (cyclo([Hyp](Et)[NMeF][NMeL][d(β3hA)][NMeA]I[Sar][Sar][NMePhe(4-Cl)][Sar][hPhe(4-CF3)]))	31 nM
